Among the data in patent US20190127366A1 (LifeSci Pharmaceuticals, Inc., priority 2015, published 2019) are IC50 values, retold here.

For the test, the target named is T1, human complement factor D (Homo sapiens, UniProt P00746).
T1 construct: purchased R&D Systems 1824-SE
T1 sequence (P00746 26-253): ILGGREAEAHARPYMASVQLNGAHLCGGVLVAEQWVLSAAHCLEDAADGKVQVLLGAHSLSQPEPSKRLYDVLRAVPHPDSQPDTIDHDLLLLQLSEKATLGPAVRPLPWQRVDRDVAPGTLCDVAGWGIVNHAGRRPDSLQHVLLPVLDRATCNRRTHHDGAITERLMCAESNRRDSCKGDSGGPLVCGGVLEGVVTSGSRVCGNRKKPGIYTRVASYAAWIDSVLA
Kind of test: In vitro enzyme inhibition (Z-Lys-SBzl/DTNB absorbance assay). Type of test: biochemical. To be noted: Complement Factor D (R&D Systems), substrate Z-Lys-SBzl, A405 nm; read-out: CFD IC50. As to the method: The ability of the compounds disclosed herein to inhibit human complement factor D inhibitory activity was quantified according to the 12-step protocol provided below. • 1. Prepare assay buffer: 50 mM Tris/HCl, pH 7.5, 1 M NaCl. • 2. Dilute 10 mM Complement Factor D inhibitor Nafamostat Mesilate (Selleckchem, Catalog #S1386) solution from 10000 μM to 9.77 μM in 100% DMSO, 8 concentrations. Then dilute the serial concentrations of Nafamostat Mesilate 20-fold in assay buffer. • 3. Add 10 μl diluted Nafamostat Mesilate duplicated into each of the inhibitor control well of a 96-well plate (Corning, Catalog #3599). Final concentrations were 50 μM, 25 μM, 12.5 μM, 6.25 μM, 3.125 μM, 0.781 μM, 0.195 μM and 0.049 μM. 0.5% DMSO was in each well finally. • 4. Dilute 20 mM test compounds from 10000 μM to […] in 100% DMSO, 6-fold dilution, 8 concentrations. Then dilute the serial concentrations of test compounds 20-fold in assay buffer. • 5. Add 10 μl diluted test compounds duplicated into the 96-well plate. Final concentrations were 50 μM, 8.33 μM, 1.39 μM, 0.23 μM, 0.0386 μM, 0.0064 μM, 0.0011 μM and 0.0002 μM. 0.5% DMSO was in each well finally. • 6. Dilute 20 mM substrate Z-Lys-SBzl (Bachem, Cat #M-1300) to 200 μM in assay buffer with 200 μM DTNB(Sigma, Catalog #D8130). • 7. Dilute 738 ng/μL Complement Factor D (R&D Systems, Catalog #1824-SE) to 6.25 ng/μL in assay buffer. Add 40 μl diluted Complement Factor D in the 96-well plate. • 8. Positive control well contains Complement Factor D without test compound. Negative control well contains neither Complement Factor D nor test compound. Using assay buffer, bring the total volume of all controls to 50 μl. • 9. Pre-incubate the plate for 5 min at room temperature. • 10. Add 50 μl of diluted substrate/DTNB mixture into each well. Mix the reagents completely by shaking the plate gently for 30 sec. • 11. For kinetic reading: Immediately start measuring absorbance (A405 nm) continuously and record data every 30sec for 60 min. • 12. Data analysis • Inhibition activity of compound was evaluated by IC50. IC50 was calculated according the dose-response curve of compound fitted using GraphPadPrism with “log(inhibitor)-response (variable slope)” equation. • % inhibition was calculated by using following equation:
[formula] • Mean(NC): The average value of the negative control wells' A405 nm values. • Mean(PC): The average value of the positive control wells' A405 nm values.
The ability of the compounds in Table 2 to inhibit human complement factor D inhibitory activity was determined.
As to `COC(=O)c1nn(CC(=O)N2[C@@H]3CC[C@@H](C3)[C@H]2C(=O)Nc2cccc(Cl)n2)c2ccccc12` [Example 82, methyl 1-(2-((1R,3S,4S)-3-((6-chloropyridin-2-yl)carbamoyl)-2-azabicyclo[2.2.1]heptan-2-yl)-2-oxoethyl)-1H-indazole-3-carboxylate], the IC50 (usually the concentration that inhibits the measured activity by half) lay in the range of 1 to 10 µM.
The result for `N#Cc1cccc(NC(=O)[C@@H]2[C@H]3CC[C@H](C3)N2C(=O)Cn2nc(C(N)=O)c3ccccc32)n1` [Example 49, 1-(2-((1R,3S,4S)-3-((6-cyanopyridin-2-yl)carbamoyl)-2-azabicyclo[2.2.1]heptan-2-yl)-2-oxoethyl)-1H-indazole-3-carboxamide] reads 1 to 10 µM.
`COC(=O)c1ccc2c(c1)c(C(N)=O)nn2CC(=O)N1[C@@H]2CC[C@@H](C2)[C@H]1C(=O)Nc1cccc(Cl)n1` [Example 78, methyl 3-carbamoyl-1-(2-((1R,3S,4S)-3-((6-chloropyridin-2-yl)carbamoyl)-2-azabicyclo[2.2.1]heptan-2-yl)-2-oxoethyl)-1H-indazole-5-carboxylate]: the IC50 is 0.1 to 1 µM.
`NC(=O)c1nn(CC(=O)N2[C@@H]3CC[C@@H](C3)[C@H]2C(=O)Nc2cccc(F)n2)c2ccccc12` [Example 53, 1-(2-((1R,3S,4S)-3-((6-fluoropyridin-2-yl)carbamoyl)-2-azabicyclo[2.2.1]heptan-2-yl)-2-oxoethyl)-1H-indazole-3-carboxamide]: the IC50 fell in the range of 1 to 10 µM.
Consider `NC(=O)c1nn(CC(=O)N2[C@@H]3CC[C@@H](C3)[C@H]2C(=O)Nc2cc(Cl)ccn2)c2ccccc12` [Example 51, 1-(2-((1R,3S,4S)-3-((4-chloropyridin-2-yl)carbamoyl)-2-azabicyclo[2.2.1]heptan-2-yl)-2-oxoethyl)-1H-indazole-3-carboxamide], for which the IC50 lay in the range of 1 to 10 µM.
With `N#Cc1ccc(Cl)nc1NC(=O)[C@@H]1[C@H]2CC[C@H](C2)N1C(=O)Cn1nc(C(N)=O)c2ccccc21` [Example 101, 1-(2-((1R,3S,4S)-3-((6-chloro-3-cyanopyridin-2-yl)carbamoyl)-2-azabicyclo[2.2.1]heptan-2-yl)-2-oxoethyl)-1H-indazole-3-carboxamide] the figure was 0.1 to 1 µM; with `NC(=O)c1nn(CC(=O)N2[C@@H]3CC[C@@H](C3)[C@H]2C(=O)Nc2cccc(OC(F)(F)F)c2F)c2ccccc12` [Example 41, 1-(2-((1R,3S,4S)-3-((2-fluoro-3-(trifluoromethoxy)phenyl)carbamoyl)-2-azabicyclo[2.2.1]heptan-2-yl)-2-oxoethyl)-1H-indazole-3-carboxamide], 1 to 10 µM; with `CC(C)=C(F)C(C)NC(=O)[C@@H]1[C@H]2CC[C@H](C2)N1C(=O)Cn1nc(C(N)=O)c2ccccc21` (stereo partly drawn) [Example 135, 1-(2-((1R,3S,4S)-3-((3-fluoro-4-methylpent-3-en-2-yl)carbamoyl)-2-azabicyclo[2.2.1]heptan-2-yl)-2-oxoethyl)-1H-indazole-3-carboxamide], over 10 µM.
`NC(=O)c1nn(CC(=O)N2[C@@H]3CC[C@@H](C3)[C@H]2C(=O)NCc2cccc(Cl)c2F)c2cc(CCO)ccc12` [Example 129, 1-(2-((1R,3S,4S)-3-((3-chloro-2-fluorobenzyl)carbamoyl)-2-azabicyclo[2.2.1]heptan-2-yl)-2-oxoethyl)-6-(2-hydroxyethyl)-1H-indazole-3-carboxamide]: the IC50 is 1 to 10 µM.
With `Cc1ccc2c(c1)c(C(N)=O)nn2CC(=O)N1[C@H](C(=O)NCc2cccc(Cl)c2F)C[C@@H]2CCC[C@@H]21` [Example 165, 1-(2-((2S,3aS,6aS)-2-((3-chloro-2-fluorobenzyl)carbamoyl)hexahydrocyclopenta[b]pyrrol-1(2H)-yl)-2-oxoethyl)-5-methyl-1H-indazole-3-carboxamide] the figure was 0.1 to 1 µM.
For the molecule `NC(=O)c1nn(CC(=O)N2[C@@H]3CC[C@@H](C3)[C@H]2C(=O)NCc2cc(F)cc(Cl)c2)c2ccccc12` [Example 64, 1-(2-((1R,3S,4S)-3-((3-chloro-5-fluorobenzyl)carbamoyl)-2-azabicyclo[2.2.1]heptan-2-yl)-2-oxoethyl)-1H-indazole-3-carboxamide 2,2,2-trifluoroacetate], the IC50 lay in the range of 0.1 to 1 µM.
As for `NC(=O)c1nn(CC(=O)N2CCNC[C@H]2C(=O)Nc2cccc(C(F)(F)F)n2)c2ccccc12` [Example 29, (S)-1-(2-oxo-2-(2-((6-(trifluoromethyl)pyridin-2-yl)carbamoyl)piperazin-1-yl)ethyl)-1H-indazole-3-carboxamide], the IC50 is over 10 µM.
Turning to `NC(=O)c1nn(CC(=O)N2[C@@H]3CC[C@@H](C3)[C@H]2C(=O)NCc2cc(C(=O)O)cc(Cl)c2F)c2ccccc12` [Example 111, 3-(((1R,3S,4S)-2-(2-(3-carbamoyl-1H-indazol-1-yl)acetyl)-2-azabicyclo[2.2.1]heptane-3-carboxamido)methyl)-5-chloro-4-fluorobenzoic acid], the IC50 was 0.1 to 1 µM.
With `NC(=O)c1nn(CC(=O)N2[C@H](C(=O)Nc3cccc(Cl)n3)C[C@@H]3CCC[C@@H]32)c2cc(Cl)ccc12` [Example 182, 6-chloro-1-(2-((2S,3aS,6aS)-2-((6-chloropyridin-2-yl)carbamoyl)hexahydrocyclopenta[b]pyrrol-1(2H)-yl)-2-oxoethyl)-1H-indazole-3-carboxamide], the IC50 was in the range of 0.1 to 1 µM.
Take `Cc1cccc(NC(=O)[C@@H]2[C@H]3CC[C@H](C3)N2C(=O)Cn2nc(C(N)=O)c3ccncc32)n1` [Example 7, 1-(2-((1R,3S,4S)-3-((6-methylpyridin-2-yl)carbamoyl)-2-azabicyclo[2.2.1]heptan-2-yl)-2-oxoethyl)-1H-pyrazolo[3,4-c]pyridine-3-carboxamide]: the IC50 fell in the range of 1 to 10 µM.
The result for `NC(=O)c1nn(CC(=O)N2[C@@H]3CC[C@@H](C3)[C@H]2C(=O)NCc2ccc(F)c(Cl)c2)c2ccccc12` [Example 63, 1-(2-((1R,3S,4S)-3-((3-chloro-4-fluorobenzyl)carbamoyl)-2-azabicyclo[2.2.1]heptan-2-yl)-2-oxoethyl)-1H-indazole-3-carboxamide 2,2,2-trifluoroacetate] reads 1 to 10 µM; that for `O=C(O)c1nn(CC(=O)N2[C@@H]3CC[C@@H](C3)[C@H]2C(=O)Nc2cccc(Cl)n2)c2ccccc12` [Example 84, 1-(2-((1R,3S,4S)-3-((6-chloropyridin-2-yl)carbamoyl)-2-azabicyclo[2.2.1]heptan-2-yl)-2-oxoethyl)-1H-indazole-3-carboxylic acid], over 10 µM.
For the molecule `NC(=O)c1ccc2c(c1)c(C(N)=O)nn2CC(=O)N1[C@@H]2CC[C@@H](C2)[C@H]1C(=O)Nc1cccc(Cl)n1` [Example 121, 1-(2-((1R,3S,4S)-3-((6-chloropyridin-2-yl)carbamoyl)-2-azabicyclo[2.2.1]heptan-2-yl)-2-oxoethyl)-1H-indazole-3,5-dicarboxamide], the IC50 lay in the range of 0.1 to 1 µM.
With `COc1ccc2c(c1)c(C(C)=O)nn2CC(=O)N1[C@@H]2CC[C@@H](C2)[C@H]1C(=O)Nc1cccc(Cl)n1` [Example 79, (1R,3S,4S)-2-(2-(3-acetyl-5-methoxy-1H-indazol-1-yl)acetyl)-N-(6-chloropyridin-2-yl)-2-azabicyclo[2.2.1]heptane-3-carboxamide] the figure was 0.1 to 1 µM.
On to `NC(=O)c1nn(CC(=O)N2CCOC[C@H]2C(=O)Nc2cccc(Cl)n2)c2ccccc12` [Example 22, (S)-4-(2-(3-carbamoyl-1H-indazol-1-yl)acetyl)-N-(6-chloropyridin-2-yl)morpholine-3-carboxamide], for which the IC50 fell in the range of 1 to 10 µM.
With `NC(=O)c1nn(CC(=O)N2[C@@H]3CC[C@@H](C3)[C@H]2C(=O)NCc2cc(Cl)ccc2Cl)c2ccccc12` [Example 69, 1-(2-((1R,3S,4S)-3-((2,5-dichlorobenzyl)carbamoyl)-2-azabicyclo[2.2.1]heptan-2-yl)-2-oxoethyl)-1H-indazole-3-carboxamide] the figure was 1 to 10 µM; with `NC(=O)c1nn(CC(=O)N2[C@H](C(=O)NCc3cccc(Cl)c3F)C[C@@H]3CCC[C@@H]32)c2ccc(F)cc12` [Example 166, 1-(2-((2S,3aS,6aS)-2-((3-chloro-2-fluorobenzyl)carbamoyl)hexahydrocyclopenta[b]pyrrol-1(2H)-yl)-2-oxoethyl)-5-fluoro-1H-indazole-3-carboxamide], 0.1 to 1 µM.
